Data reported in US8884030B2, “Inhibitors of Flaviviridae viruses” (priority 2010, dated 2014).

Tested on: human hepatoma Huh-7 cell line harboring a HCV replicon
Assay: HCV replicon assay (inhibition of viral replication, luciferase)
Assay type: cell-based
Conditions: Hepatitis C virus, 72 h; 2 μM; Huh-7 HCV replicon cells, 3 days incubation; inhibition of viral replication; read-out: % inhibition at 2 μM
In short: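 Huh-7 replicon cells (1600/well) exposed 3 days at 37 °C to 10-point 3-fold dilutions, 0.44% DMSO. Replication measured by Dual-Glo luciferase, background from ITMN-191 wells; cytotoxicity by calcein AM. EC50/CC50 from Hill fit; % inhibition at fixed concentration derivable from fit.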

SMILES | inhibition at 2 µM [%]
CC1CCC(C(=O)N(c2cc(C#CC(C)(C)C)sc2C(=O)O)C2CCC(=NOCc3ccc(S(C)(=O)=O)cc3)CC2)CC1 (centres unmarked) [Compound 121, 3-(N-(4-(4-(Methylsulfonyl)benzyloxyimino)cyclohexyl)-4-methylcyclohexanecarboxamido)-5-(3,3-dimethylbut-1-ynyl)thiophene-2-carboxylic acid] | 99.9
CC1CCC(C(=O)N(c2cc(C#CC(C)(C)C)sc2C(=O)O)N(C)C2CCC3(CC2)OCCO3)CC1 (centres unmarked) [Compound 122] | 99.7
CC1CCC(C(=O)N(c2cc(C#CC(C)(C)C)sc2C(=O)O)N(C)[C@H]2CC[C@@H](O)CC2)CC1 (some centres unmarked) [Compound 123, 3-(2-(4-hydroxycyclohexyl)-2-methyl-1-(4-methylcyclohexanecarbonyl)hydrazinyl)-5-(3,3-dimethylbut-1-ynyl)thiophene-2-carboxylic acid] | 99.9
CC1CCC(C(=O)N(c2cc(C#CC(C)(C)C)sc2C(=O)O)N(C)C2CCN(C(=O)OC(C)(C)C)CC2)CC1 (centres unmarked) [Compound 127, 4-[N′-[2-carboxy-5-(3,3-dimethyl-but-1-ynyl)-thiophen-3-yl]-N-methyl-N′-(4-methyl-cyclohexanecarbonyl)-hydrazino]-piperidine-1-carboxylic acid tert-butyl ester] | 98.3
CC1CCC(C(=O)N(c2cc(C#CC(C)(C)C)sc2C(=O)O)N(C)C2CCNCC2)CC1 (centres unmarked) [Compound 128, 5-(3,3-dimethyl-but-1-ynyl)-3-[N′-methyl-N-(4-methyl-cyclohexanecarbonyl)-N′-piperidin-4-yl-hydrazino]-thiophene-2-carboxylic acid] | 99.8
CC1CCC(C(=O)N(c2cc(C#CC(C)(C)C)sc2C(=O)O)N(C)C2CCN(C)CC2)CC1 (centres unmarked) [Compound 129, 5-(3,3-dimethyl-but-1-ynyl)-3-[N′-methyl-N-(4-methyl-cyclohexanecarbonyl)-N′-(1-methyl-piperidin-4-yl)-hydrazino]-thiophene-2-carboxylic acid] | 100
CC1CCC(C(=O)N(c2cc(C#CC(C)(C)C)sc2C(=O)O)N(C)CCOc2cccnc2)CC1 (centres unmarked) [Compound 130, 5-(3,3-dimethyl-but-1-ynyl)-3-{N′-methyl-N-(4-methyl-cyclohexanecarbonyl)-N′-[2-(pyridin-3-yloxy)-ethyl]-hydrazino}-thiophene-2-carboxylic acid] | 98.7
CC1CCC(C(=O)N(c2cc(C#CC(C)(C)C)sc2C(=O)O)N(C)CC2CCOCC2)CC1 (centres unmarked) [Compound 131, 5-(3,3-dimethyl-but-1-ynyl)-3-[N′-methyl-N-(4-methyl-cyclohexanecarbonyl)-N′-(tetrahydro-pyran-4-ylmethyl)-hydrazino]-thiophene-2-carboxylic acid] | 99.9
CC1CCC(C(=O)N(c2cc(C#CC(C)(C)C)sc2C(=O)O)N(C)CCOc2ccccn2)CC1 (centres unmarked) [Compound 132, 5-(3,3-dimethyl-but-1-ynyl)-3-{N′-methyl-N-(4-methyl-cyclohexanecarbonyl)-N′-[2-(pyridin-2-yloxy)-ethyl]-hydrazino}-thiophene-2-carboxylic acid] | 77.4
CC1CCC(C(=O)N(NCCOc2cccnc2)c2cc(C#CC(C)(C)C)sc2C(=O)O)CC1 (centres unmarked) [Compound 133, 5-(3,3-dimethyl-but-1-ynyl)-3-{N-(4-methyl-cyclohexanecarbonyl)-N′-[2-(pyridin-3-yloxy)-ethyl]-hydrazino}-thiophene-2-carboxylic acid] | 96.7
CC1CCC(C(=O)N(c2cc(C#CC(C)(C)C)sc2C(=O)O)N(CCO)C2COC2)CC1 (centres unmarked) [Compound 134, 5-(3,3-dimethyl-but-1-ynyl)-3-[N′-(2-hydroxy-ethyl)-N-(4-methyl-cyclohexanecarbonyl)-N′-oxetan-3-yl-hydrazino]-thiophene-2-carboxylic acid] | 99
CC1CCC(C(=O)N(c2cc(C#CC(C)(C)C)sc2C(=O)O)N(C)CCO)CC1 (centres unmarked) [Compound 135, 5-(3,3-dimethyl-but-1-ynyl)-3-[N′-(2-hydroxy-ethyl)-N′-methyl-N-(4-methyl-cyclohexanecarbonyl)-hydrazino]-thiophene-2-carboxylic acid] | 99.8
CC1CCC(C(=O)N(c2cc(C#CC(C)(C)C)sc2C(=O)O)N(C)C)CC1 (centres unmarked) [Compound 136, 5-(3,3-dimethyl-but-1-ynyl)-3-[N′-dimethyl-N-(4-methyl-cyclohexanecarbonyl)-hydrazino]-thiophene-2-carboxylic acid] | 98.9
CC1CCC(C(=O)N(c2cc(C#CC(C)(C)C)sc2C(=O)O)N(C)c2ccccn2)CC1 (centres unmarked) [Compound 137, 5-(3,3-dimethyl-but-1-ynyl)-3-[N′-methyl-N-(4-methyl-cyclohexanecarbonyl)-N′-pyridin-2-yl-hydrazino]-thiophene-2-carboxylic acid] | 100
CC1CCC(C(=O)N(c2cc(C#CC(C)(C)C)sc2C(=O)O)C2CCN(C(=O)c3cccnc3)CC2)CC1 (centres unmarked) [Compound 140, 5-(3,3-dimethyl-but-1-ynyl)-3-{(4-methyl-cyclohexanecarbonyl)-[1-(pyridine-3-carbonyl)-piperidin-4-yl]-amino}-thiophene-2-carboxylic acid] | 99.9
CC1CCC(C(=O)N(c2cc(C#CC(C)(C)C)sc2C(=O)O)C2CCN(C(=O)c3cnccn3)CC2)CC1 (centres unmarked) [Compound 141, 5-(3,3-dimethyl-but-1-ynyl)-3-{(4-methyl-cyclohexanecarbonyl)-[1′-(pyrazine-2-carbonyl)-piperidin-4-yl]-amino}-thiophene-2-carboxylic acid] | 99.9
CC1CCC(C(=O)N(c2cc(C#CC(C)(C)C)sc2C(=O)O)C2CCN(C(=O)c3cccnc3)C2)CC1 (centres unmarked) [Compound 142, 5-(3,3-Dimethyl-but-1-ynyl)-3-{(4-methyl-cyclohexanecarbonyl)-[1-(pyridine-3-carbonyl)-pyrrolidin-3-yl]-amino}-thiophene-2-carboxylic acid] | 99.6
CN([C@H]1CC[C@H](N(c2cc(C#CC(C)(C)C)sc2C(=O)O)C(=O)[C@H]2CC[C@H](C)CC2)CC1)S(=O)(=O)c1cccnc1 [Compound 164, 5-(3,3-dimethyl-but-1-ynyl)-3-((4-trans-methyl-cyclohexanecarbonyl)-{4-trans-[methyl-(pyridine-3-sulfonyl)-amino]-cyclohexyl}-amino)-thiophene-2-carboxylic acid] | 98.9
CC(C)(C)C#Cc1cc(N(C(=O)[C@H]2CC[C@H](C)CC2)C2CCC(NS(=O)(=O)c3cccnc3)CC2)c(C(=O)O)s1 (stereo partly drawn) [Compound 165, 5-(3,3-dimethyl-but-1-ynyl)-3-{(4-trans-methyl-cyclohexanecarbonyl)-[4-(pyridine-3-sulfonylamino)-cyclohexyl]-amino}-thiophene-2-carboxylic acid] | 95.7
CC1CCC(C(=O)N(c2cc(C#CC(C)(C)C)sc2C(=O)O)C2CCC(NC(=O)OC3CN(C(=O)OC(C)(C)C)C3)CC2)CC1 (centres unmarked) [Compound 186, 3-{4-[[2-carboxy-5-(3,3-dimethyl-but-1-ynyl)-thiophen-3-yl]-(4-methyl-cyclohexanecarbonyl)-amino]-cyclohexylcarbamoyloxy}-azetidine-1-carboxylic acid tert-butyl ester] | 98.9
